{
  "source": "patent US20110313156A1",
  "about": "(BOEHRINGER INGELHEIM INTERNATIONAL GMBH, priority 2008, published 2011)",
  "data": [
    {"target": "T1, His6-PDK1 (aa 52-556) (Homo sapiens, UniProt O15530)", "T1 construct": "15 μL His6-PDK1 (aa 52-556) 3.33 ng/well); host or cells: baculovirus-infected insect cells", "T1 sequence (O15530 52-556)": "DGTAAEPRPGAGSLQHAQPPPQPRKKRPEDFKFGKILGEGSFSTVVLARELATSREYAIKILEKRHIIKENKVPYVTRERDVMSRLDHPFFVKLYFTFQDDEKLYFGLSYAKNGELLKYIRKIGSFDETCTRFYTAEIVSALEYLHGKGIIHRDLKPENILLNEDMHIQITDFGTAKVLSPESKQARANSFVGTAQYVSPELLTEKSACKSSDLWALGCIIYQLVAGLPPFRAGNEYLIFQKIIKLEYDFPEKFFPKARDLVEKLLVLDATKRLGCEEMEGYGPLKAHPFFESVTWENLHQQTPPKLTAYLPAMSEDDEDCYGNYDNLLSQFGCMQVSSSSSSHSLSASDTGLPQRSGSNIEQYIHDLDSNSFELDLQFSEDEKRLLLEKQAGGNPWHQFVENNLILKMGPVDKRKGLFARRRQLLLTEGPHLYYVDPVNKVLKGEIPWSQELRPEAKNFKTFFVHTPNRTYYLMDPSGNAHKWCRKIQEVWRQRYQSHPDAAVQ", "test": "PDK1 kinase assay III (with Tween 20)", "type": "biochemical", "details": "compound at 10 μM; PDK1 kinase assay III (values without asterisk); read-out: % CTL (residual activity of the enzyme relative to DMSO control)", "outline": "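Started with ATP, incubated 90 min at ambient temperature, then stopped with phosphoric acid. Asterisked values come from assay II (24 h or 5 min incubation).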", "units": {"remaining activity at 10 µM": "%"}, "values": [
      {"smiles": "Cc1c(C(=O)NC/C=C/c2ccc3nc(Nc4ccc(C(=O)NCCCN(C)C)cc4)ncc3c2)c(=O)n(Cc2ccc(F)c(F)c2)n1C", "remaining activity at 10 µM": 16.9},
      {"smiles": "COc1ccc(Nc2ncc3cc(C#CCNC(=O)c4c(C)n(C)n(Cc5ccc(F)c(F)c5)c4=O)ccc3n2)cc1", "remaining activity at 10 µM": 14.7},
      {"smiles": "CC(/C=C/c1ccc2nc(Nc3ccc(CN(C)C)cc3)ncc2c1)NC(=O)c1cncn(Cc2ccc(F)c(F)c2)c1=O", "note": "(centres unmarked) [IV-32, 1-(3,4-difluorobenzyl)-N-{(3E)-4-[2-({4-[(dimethylamino)methyl]phenyl}amino)-quinazolin-6-yl]but-3-en-2-yl}-6-oxo-1,6-dihydropyrimidine-5-carboxamide]", "remaining activity at 10 µM": 19},
      {"smiles": "Cc1c(C(=O)NCC#Cc2ccc3nc(Nc4ccc(CN(C)C)cc4)ncc3c2F)c(=O)n(Cc2ccc(F)c(F)c2)n1C", "note": "[III-25, 2-(3,4-difluorobenzyl)-N-{3-[2-({4-[(dimethylamino)methyl]phenyl}amino)-5-fluoroquinazolin-6-yl]prop-2-yn-1-yl}-1,5-dimethyl-3-oxo-2,3-dihydro-1H-pyrazole-4-carboxamide]", "remaining activity at 10 µM": 11.7},
      {"smiles": "Cc1c(C(=O)NCC#Cc2ccc3nc(Nc4ccc(N(C)C5CCN(C)CC5)cc4)ncc3c2F)c(=O)n(Cc2ccc(F)c(F)c2)n1C", "note": "[III-27, 2-(3,4-difluorobenzyl)-N-{3-[5-fluoro-2-({4-[methyl(1-methylpiperidin-4-yl)amino]phenyl}amino)quinazolin-6-yl]prop-2-yn-1-yl}-1,5-dimethyl-3-oxo-2,3-dihydro-1H-pyrazole-4-carboxamide]", "remaining activity at 10 µM": 12.8},
      {"smiles": "Cc1nc(/C=C2\\C(=O)Nc3cc(/C=C/CNC(=O)c4cncn(Cc5ccc(F)c(F)c5)c4=O)ccc32)c[nH]1", "note": "[I-35, 1-(3,4-difluorobenzyl)-N-[(2E)-3-{(3Z)-3-[(2-methyl-1H-imidazol-4-yl)methylidene]-2-oxo-2,3-dihydro-1H-indol-6-yl}prop-2-en-1-yl]-6-oxo-1,6-dihydropyrimidine-5-carboxamide]", "remaining activity at 10 µM": 10.7},
      {"smiles": "CN1CCC(N(C)c2ccc(Nc3ncc4cc(/C=C/CNC(=O)c5nccn(Cc6ccc(F)c(F)c6)c5=O)ccc4n3)cc2)CC1", "note": "[IV-49, 4-(3,4-difluorobenzyl)-N-{(2E)-3-[2-({4-[methyl(1-methylpiperidin-4-yl)amino]-phenyl}amino)quinazolin-6-yl]prop-2-en-1-yl}-3-oxo-3,4-dihydropyrazine-2-carboxamide]", "remaining activity at 10 µM": 13.5},
      {"smiles": "Cc1c(C(=O)NC/C=C/c2ccc3nc(Nc4ccc(CN(C)C)cc4)ncc3c2)c(=O)n(Cc2ccc(F)c(F)c2)n1C", "note": "[IV-21, 2-(3,4-difluorobenzyl)-N-{(2E)-3-[2-({4-[(dimethylamino)methyl]phenyl}amino)-quinazolin-6-yl]prop-2-en-1-yl}-1,5-dimethyl-3-oxo-2,3-dihydro-1H-pyrazole-4-carboxamide]", "remaining activity at 10 µM": 11.2},
      {"smiles": "Cc1c(C(=O)NCC#Cc2cc3cnc(Nc4ccc(N5CCOCC5)cc4)nc3n(C(C)C)c2=O)c(=O)n(Cc2ccc(F)c(F)c2)n1C", "note": "[IV-58, 2-(3,4-difluorobenzyl)-1,5-dimethyl-N-{3-[2-{[4-(morpholin-4-yl)phenyl]amino}-7-oxo-8-(propane-2-yl)-7,8-dihydropyrido[2,3-c]pyrimidin-6-yl]prop-2-yn-1-yl}-3-oxo-2,3-dihydro-1H-pyrazole-4-carboxamide]", "remaining activity at 10 µM": 14.6},
      {"smiles": "CN(C)Cc1ccc(Nc2ncc3cc(C#CCNC(=O)c4nccn(Cc5ccc(F)c(F)c5)c4=O)ccc3n2)cc1", "note": "[III-17, 4-(3,4-difluorobenzyl)-N-{3-[2-({4-[(dimethylamino)methyl]phenyl}amino)quinazolin-6-yl]prop-2-yn-1-yl}-3-oxo-3,4-dihydropyrazine-2-carboxamide]", "remaining activity at 10 µM": 13.7},
      {"smiles": "CN(C)Cc1ccc(Nc2ncc3cc(C#CCNC(=O)c4cc(Cl)nn(Cc5ccc(F)c(F)c5)c4=O)ccc3n2)cc1", "note": "[III-37, 6-chloro-2(3,4-difluorobenzyl)-N-{3-[2-({4-[(dimethylamino)methyl]phenyl}-amino)quinazolin-6-yl]prop-2-yn-1-yl}-3-oxo-2,3-dihydropyridazine-4-carboxamide]", "remaining activity at 10 µM": 13.8},
      {"smiles": "Cc1c(C(=O)NC/C=C/c2ccc3nc(Nc4ccc(C(=O)N(C)C5CCN(C)CC5)c(Cl)c4)ncc3c2)c(=O)n(Cc2ccc(F)c(F)c2)n1C", "remaining activity at 10 µM": 15.8},
      {"smiles": "CN1CCC(Nc2ccc(Nc3ncc4cc(C#CCNC(=O)c5cc(Cl)nn(Cc6ccc(F)c(F)c6)c5=O)ccc4n3)cc2F)CC1", "note": "[III-38, 6-chloro-2(3,4-difluorobenzyl)-N-{3-[2-({3-fluoro-4-[(1-methylpiperidin-4-yl)-amino]phenyl}amino)quinazolin-6-yl]prop-2-yn-1-yl}-3-oxo-2,3-dihydropyridazine-4-carboxamide]", "remaining activity at 10 µM": 13.2},
      {"smiles": "Cc1c(C(=O)NCC#Cc2cc(OCCN)c3nc(Nc4ccc(N5CCOCC5)cc4)ncc3c2)c(=O)n(Cc2ccc(F)c(F)c2)n1C", "remaining activity at 10 µM": 13.8},
      {"smiles": "COC(=O)c1ccc(Nc2ncc3cc(C#CCNC(=O)c4c(C)n(C)n(Cc5ccc(F)c(F)c5)c4=O)ccc3n2)cc1", "note": "[III-46, methyl-4-({6-[3-({[2-(3,4-difluorobenzyl)-1,5-dimethyl-3-oxo-2,3-dihydro-1H-pyrazol-4-yl]carbonyl}amino)prop-1-yn-1-yl]quinazolin-2-yl}amino)benzoate]", "remaining activity at 10 µM": 21},
      {"smiles": "CC(C)Nc1ncc2cc(/C=C/CNC(=O)c3cccn(Cc4ccc(F)c(F)c4)c3=O)ccc2n1", "note": "[IV-91]", "remaining activity at 10 µM": 26.1},
      {"smiles": "CNC(=O)c1ccc(Nc2ncc3cc(/C=C/CNC(=O)c4c(C)n(C)n(Cc5ccc(F)c(F)c5)c4=O)ccc3n2)cc1Cl", "remaining activity at 10 µM": 18.6},
      {"smiles": "Cc1c(C(=O)NCC#Cc2cc(OCCCN)c3nc(Nc4ccc(N5CCOCC5)cc4)ncc3c2)c(=O)n(Cc2ccc(F)c(F)c2)n1C", "note": "[III-74]", "remaining activity at 10 µM": 13},
      {"smiles": "Cc1c(C(=O)NCc2ccc(-c3cnc4[nH]ccc4c3)s2)c(=O)n(Cc2ccc(F)c(F)c2)n1C", "note": "[IV-42, 2-(3,4-difluorobenzyl)-1,5-dimethyl-3-oxo-N-{[5-(1H-pyrrolo[2,3-b]pyridin-5-yl)thiophen-2-yl]methyl}-2,3-dihydro-1H-pyrazole-4-carboxamide]", "remaining activity at 10 µM": 27.7},
      {"smiles": "Cc1c(C(=O)NCC#Cc2ccc3nc(Nc4ccc(C(=O)N(C)CCO)cc4)ncc3c2)c(=O)n(Cc2ccc(F)c(F)c2)n1C", "remaining activity at 10 µM": 14.4},
      {"smiles": "Cc1c(C(=O)NC/C=C/c2ccc3c(c2)NC(=O)/C3=C\\c2ccc[nH]2)c(=O)n(Cc2ccc(F)c(F)c2)n1C", "note": "[I-16, 2-(3,4-difluorobenzyl)-1,5-dimethyl-3-oxo-N-{(2E)-3-[(3Z)-2-oxo-3-(1H-pyrrol-2-ylmethylidene)-2,3-dihydro-1H-indol-6-yl]prop-2-en-1-yl}-2,3-dihydro-1H-pyrazole-4-carboxamide]", "remaining activity at 10 µM": 15.4},
      {"smiles": "Cc1c(C(=O)NCC#Cc2ccc3nc(Nc4ccccc4)ncc3c2)c(=O)n(Cc2ccc(F)c(F)c2)n1C", "note": "[III-15, 2-(3,4-difluorobenzyl)-1,5-dimethyl-3-oxo-N-{3-[2-(phenylamino)quinazolin-6-yl]prop-2-yn-1-yl}-2,3-dihydro-1H-pyrazole-4-carboxamide]", "remaining activity at 10 µM": 19.1},
      {"smiles": "COCCN(C)C(=O)c1ccc(Nc2ncc3cc(C#CCNC(=O)c4c(C)n(C)n(Cc5ccc(F)c(F)c5)c4=O)ccc3n2)cc1", "remaining activity at 10 µM": 17.2},
      {"smiles": "Cc1c(C(=O)NC/C=C/c2ccc3nc(Nc4ccccc4)ncc3c2)c(=O)n(Cc2ccc(F)c(F)c2)n1C", "note": "[IV-5, 2-(3,4-difluorobenzyl)-1,5-dimethyl-3-oxo-N-{(2E)-3-[2-(phenylamino)quinazolin-6-yl]prop-2-en-1-yl}-2,3-dihydro-1H-pyrazole-4-carboxamide]", "remaining activity at 10 µM": 13.6},
      {"smiles": "O=C1Nc2cc(/C=C/CNC(=O)c3cc(Cl)nn(Cc4ccc(F)c(F)c4)c3=O)ccc2/C1=C/c1cnc[nH]1", "note": "[I-33, 6-chloro-2-(3,4-difluorobenzyl)-N-{(2E)-3-[(3Z)-3-(1H-imidazol-5-ylmethylidene)-2-oxo-2,3-dihydro-1H-indol-6-yl]prop-2-en-1-yl}-3-oxo-2,3-dihydropyridazine-4-carboxamide]", "remaining activity at 10 µM": 12},
      {"smiles": "COCCN(C)C(=O)c1ccc(Nc2ncc3cc(C#CCNC(=O)c4cncn(Cc5ccc(F)c(F)c5)c4=O)ccc3n2)cc1", "remaining activity at 10 µM": 12.2},
      {"smiles": "Cc1c(C(=O)NC/C=C/c2cc(OCCN)c3nc(Nc4ccc(N5CCOCC5)cc4)ncc3c2)c(=O)n(Cc2ccc(F)c(F)c2)n1C", "remaining activity at 10 µM": 13},
      {"smiles": "Cc1c(C(=O)NCC#Cc2cc(OCCN)c3nc(Nc4ccccc4)ncc3c2)c(=O)n(Cc2ccc(F)c(F)c2)n1C", "remaining activity at 10 µM": 9.8},
      {"smiles": "CNC(=O)c1cccc(Nc2ncc3cc(C#CCNC(=O)c4c(C)n(C)n(Cc5ccc(F)c(F)c5)c4=O)ccc3n2)c1", "remaining activity at 10 µM": 19.3},
      {"smiles": "CN1CCC(N(C)c2ccc(Nc3ncc4cc(/C=C/CNC(=O)c5nc(Cl)cn(Cc6ccc(F)c(F)c6)c5=O)ccc4n3)cc2)CC1", "remaining activity at 10 µM": 12.6},
      {"smiles": "Cc1c(C(=O)NCC#Cc2ccc3nc(Nc4ccc(C(=O)NC5CCN(C)CC5)c(F)c4)ncc3c2)c(=O)n(Cc2ccc(F)c(F)c2)n1C", "remaining activity at 10 µM": 11},
      {"smiles": "CN1CCC(N(C)c2ccc(Nc3ncc4cc(/C=C/CNC(=O)c5ccnn(Cc6ccc(F)c(F)c6)c5=O)ccc4n3)cc2)CC1", "note": "[IV-52, 2-(3,4-difluorobenzyl)-N-{(2E)-3-[2-({4-[methyl(1-methylpiperidin-4-yl)amino]-phenyl}amino)quinazolin-6-yl]prop-2-en-1-yl}-3-oxo-2,3-dihydropyridazine-4-carboxamide]", "remaining activity at 10 µM": 17.2}
    ]}
  ]
}
